US9045551B2, “Anti-DLL4/VEGF dual variable domain immunoglobulin and uses thereof” (AbbVie Inc., priority 2012, dated 2015)
Marks after values point to notes of the source that are not given here. Each block holds one molecule with its values, some of them ahead of it.

How the values were obtained:
[1] = tested on: SW-48 human colon xenograft tumors; assay: SW-48 colon xenograft, combination with irinotecan; type: in vivo, female SCID mice; conditions: 60 mg/kg IP, q3dX4
Description: (§1) The effect of anti-DLL4-VEGF DVD-Igs in combination with chemotherapy on tumor growth was evaluated on SW-48 human colon xenograft tumors in female SCID mice. Briefly, 5×10^6 cells were inoculated subcutaneously into the right hind flank. Tumors were allowed to establish for 13 days, at which point tumor volume was determined using electronic caliper measurements using the formula: L×W^2/2. Mice were allocated into treatment groups (n=10 per group) so that each cohort had equivalent mean tumor volume of 211 mm^3 prior to initiation of therapy. Animals were dosed with irinotecan, anti-VEGF mAb, and/or anti-DLL4-VEGF DVD-Ig at the dose and schedule in Table 27. Tumor volume was measured twice a week for the duration of the experiment.

[2] = tested on: HT-29 human colon xenograft tumors; assay: HT-29 colon xenograft, combination with irinotecan; type: in vivo, female SCID mice; conditions: 60 mg/kg IP, q3dX4
Description: The effect of anti-DLL4-VEGF DVD-Igs in combination with chemotherapy on tumor growth was evaluated on HT-29 human colon xenograft tumors in female SCID mice. Briefly, 2×10^6 cells were inoculated subcutaneously into the right hind flank. Tumors were allowed to establish for 25 days, at which point tumor volume was determined using electronic caliper measurements using the formula: L×W^2/2. Mice were allocated into treatment groups (n=10 per group) so that each cohort had equivalent mean tumor volume of 209 mm^3 prior to initiation of therapy. Animals were dosed with irinotecan and/or anti-DLL4-VEGF DVD-Ig, at the dose and schedule in Table 29. Tumor volume was measured twice a week for the duration of the experiment.

[3] = tested on: U87-MG human glioblastoma xenograft tumors; assay: U87-MG glioblastoma xenograft, combination with Temozolomide (Example 6); type: in vivo, female SCID mice; conditions: 5 mg/kg IP
Description: The effect of anti-DLL4/anti-VEGF DVDs in combination with chemotherapy on tumor growth was evaluated on U87-MG human glioblastoma xenograft tumors in female SCID mice. Briefly, 3×10^6 cells were inoculated subcutaneously into the right hind flank. Tumors were allowed to establish for 22 days, at which point tumor volume was determined using electronic caliper measurements using the formula: L×W^2/2. Mice were allocated into treatment groups (n=10 per group) so that each cohort had equivalent mean tumor volume of 207 mm^3 prior to initiation of therapy. Animals were dosed intraperitoneally with a single dose of Temozolomide® and/or four weekly doses of anti-DLL4/anti-VEGF DVD, with tumor volume measured twice a week for the duration of the experiment.

[4] = tested on: U87-MG human glioblastoma xenograft tumors; assay: U87-MG glioblastoma xenograft, combination with temozolomide (Example 11); type: in vivo, female SCID mice; conditions: 5 mg/kg IP, qdX1
Description: as §1, with “U87-MG” for “SW-48”, “glioblastoma” for “colon”, “3×10^6” for “5×10^6”, “207” for “211”, “temozolomide,” for “irinotecan,”, “30.” for “27.”

[5] = tested on: PA0123 patient-derived human pancreatic xenograft tumors; assay: PA0123 patient-derived pancreatic xenograft, combination with gemcitabine; type: in vivo, female NSG mice; conditions: 100 mg/kg IP, [q3dX4]X2
Description: The effect of anti-DLL4-VEGF DVD-Igs in combination with chemotherapy on tumor growth was evaluated on PA0123 patient-derived human pancreatic xenograft tumors in female NSG mice. Briefly, frozen tumor fragments were implanted subcutaneously into the right hind flank. Tumors were allowed to establish for 28 days, at which point tumor volume was determined using electronic caliper measurements using the formula: L×W^2/2. Mice were allocated into treatment groups (n=7 per group) so that each cohort had equivalent mean tumor volume of 193 mm^3 prior to initiation of therapy. Animals were dosed with gemcitabine and/or anti-DLL4-VEGF DVD-Ig, at the dose and schedule in Table 31. Tumor volume was measured twice a week for the duration of the experiment.

[6] = tested on: MDA-MB-231-luc human breast xenograft tumors; assay: MDA-MB-231-luc breast xenograft, combination with paclitaxel; type: in vivo, female SCID mice; conditions: 25 mg/kg IP, q4dX3
Description: The effect of anti-DLL4-VEGF DVD-Igs in combination with chemotherapy on tumor growth was evaluated on MDA-MB-231-luc human breast xenograft tumors in female SCID mice. Briefly, 2×10^6 cells were implanted in the mammary fat pad. Tumors were allowed to establish for 13 days, at which point tumor volume was determined using electronic caliper measurements using the formula: L×W^2/2. Mice were allocated into treatment groups (n=10 per group) so that each cohort had equivalent mean tumor volume of 150 mm^3 prior to initiation of therapy. Animals were dosed with paclitaxel and/or anti-DLL4-VEGF DVD-Ig, at the dose and schedule in Table 32. Tumor volume was measured twice a week for the duration of the experiment. Additionally, bioluminescent images were acquired to monitor and track spontaneous metastasis of cancer cell to the lung and/or lymph nodes Results are shown in Table 32.

[7] = tested on: SUM149PT human breast xenograft tumors; assay: SUM149PT breast xenograft, combination with paclitaxel (Table 33); type: in vivo, female SCID mice; conditions: 25 mg/kg IP, [q4dX3]X4
Description: (§2) The effect of anti-DLL4-VEGF DVD-Igs in combination with chemotherapy on tumor growth was evaluated on SUM149PT human breast xenograft tumors in female SCID mice. Briefly, 1×10^6 cells were inoculated subcutaneously into the right hind flank. Tumors were allowed to establish for 28 days, at which point tumor volume was determined using electronic caliper measurements using the formula: L×W^2/2. Mice were allocated into treatment groups (n=9 per group) so that each cohort had equivalent mean tumor volume of 183 mm^3 prior to initiation of therapy. Animals were dosed with paclitaxel and/or anti-DLL4-VEGF DVD-Ig, at the dose and schedule in Table 33. Tumor volume was measured twice a week for the duration of the experiment.

[8] = tested on: SUM149PT human breast xenograft tumors; assay: SUM149PT breast xenograft, combination with paclitaxel and anti-VEGF mAb (Table 34); type: in vivo, female SCID mice; conditions: 25 mg/kg IP, [q4dX3]X4; day 18 post size match
Description: as §2, with “25” for “28”, “(n=10” for “(n=9”, “228” for “183”, “paclitaxel, anti-VEGF mAb” for “paclitaxel”, “34.” for “33.”

human DLL4529 = target: T1, human DLL4529 (Homo sapiens, UniProt Q9NR61); assay: BIACORE surface plasmon resonance binding kinetics, human DLL4; conditions: BIAcore human DLL4529, 25° C.
T1 construct: a purified recombinant DLL4 extracellular domain (ECD)
Description: A BIACORE assay (Biacore, Inc, Piscataway, N.J.) was used to evaluate the binding of DVDs to a purified recombinant DLL4 extracellular domain (ECD) or to VEGF165, as determined by surface plasmon resonance-based measurements made on a Biacore 2000, Biacore 3000 or Biacore T100 (GE Healthcare, Piscataway, N.J.) at 25° C. For DLL4 binding kinetic measurements the assay buffer was HBS-EPB: 10 mM Hepes, pH7.5, 150 mM NaCl, 3 mM EDTA, 0.005% Tween 20, 0.1 mg/ml BSA (Sigma A7906). For VEGF binding kinetic measurements the assay buffer was HBS-EP+(3N01B): 10 mM Hepes, pH7.5, 300 mM NaCl, 3 mM EDTA, 0.05% Tween 20, 0.1 mg/ml BSA (Sigma A7906). For example, approximately 9000 RU of goat anti-human Fc specific polyclonal antibody (Thermo Fisher Scientific Inc., Rockford, Ill.) diluted in 10 mM sodium acetate (pH 4.5) is directly immobilized across a CM5 research grade biosensor chip using a standard amine coupling kit according to manufacturer's instructions and procedures at 25 ug/ml. […] The equilibrium dissociation constant KD (M) of the reaction between antibodies and the target antigen is then calculated from the kinetic rate constants by the following formula: KD=Koff/Kon. Binding is recorded as a function of time and kinetic rate constants are calculated. In this assay, on-rates as fast as 10^6 M^−1s^−1 and off-rates as slow as 10^−6 s^−1 can be measured.

Molecule: CCc1c2c(nc3ccc(OC(=O)N4CCC(N5CCCCC5)CC4)cc13)-c1cc3c(c(=O)n1C2)COC(=O)[C@]3(O)CC [irinotecan, reference compound]
% TGI (Percent tumor growth inhibition) ([1]; day 18 post size match): 77*** %
% TGD (Percent tumor growth delay) ([1]; endpoint of 1000 mm^3): 106*** %
% TGI (Percent tumor growth inhibition) ([2]; day 20 post size match): 47* %
% TGD (Percent tumor growth delay) ([2]; endpoint of 1000 mm^3): 60* %

Molecule: Cn1nnc2c(C(N)=O)ncn2c1=O [Temozolomide, reference compound]
% TGI (Percent tumor growth inhibition) ([3]; qdX1, day 19 post size match): 65*** %
% TGD (Percent tumor growth delay) ([3]; qdX1, endpoint of 1000 mm^3): 45*** %
% TGI (Percent tumor growth inhibition) ([4]; day 19 post size match): 65*** %
% TGD (Percent tumor growth delay) ([4]; endpoint of 1000 mm^3): 45*** %

Molecule: Nc1ccn([C@@H]2O[C@H](CO)[C@@H](O)C2(F)F)c(=O)n1 [gemcitabine, reference compound]
% TGI (Percent tumor growth inhibition) ([5]; day 38 post size match): 48** %
% TGD (Percent tumor growth delay) ([5]; endpoint of 1000 mm^3): 43** %

Molecule: CC(=O)O[C@H]1C(=O)[C@@]2(C)[C@H]([C@H](OC(=O)c3ccccc3)[C@]3(O)C[C@H](OC(=O)[C@H](O)[C@@H](NC(=O)c4ccccc4)c4ccccc4)C(C)=C1C3(C)C)[C@]1(OC(C)=O)CO[C@@H]1C[C@@H]2O [paclitaxel, reference compound]
% met incidence (Percent of animals with detectable signal in the lung and/or lymph nodes) ([6]; bioluminescent imaging, day 22 post size match, treatment control group 100%): 40* %
% TGI (Percent tumor growth inhibition) ([6]; day 15 post size match): 78*** %
% TGD (Percent tumor growth delay) ([6]; endpoint of 1000 mm^3): 106*** %
% TGI (Percent tumor growth inhibition) ([7]; day 22 post size match): 60*** %
% TGD (Percent tumor growth delay) ([7]; endpoint of 1000 mm^3): 173*** %
% TGI (Percent tumor growth inhibition) [8]: 50* %

Koff (human DLL4529): 0.00193 s⁻¹
Kon (human DLL4529): 160000 M⁻¹ s⁻¹
B1: h1A11.1: humanized anti-DLL4 mAb, parent antibody; VH SEQ ID NO: 39, VL SEQ ID NO: 40 (antibody, V domains shown)
VH: EVQLVESGGGLVQPGGSLRLSCAASGFTFSNFPMAWVRQAPGKGLEWVATISSSDGTTYYRDSVKGRFTISRDNAKNSLYLQMNSLRAEDTAVYYCARGYYNSPFAYWGQGTLVTVSS
VL: DIQMTQSPSSLSASVGDRVTITCRASEDIYSNLAWYQQKPGKAPKLLIYDTNNLADGVPSRFSGSGSGTDFTLTISSLQPEDFATYYCQQYNNYPPTFGQGTKLEIKR
